Measurements from article PMC11378297, “Discovery and Profiling of New Multimodal Phenylglycinamide Derivatives as Potent Antiseizure and Antinociceptive Drug Candidates” (ACS Chemical Neuroscience, 2024).
Like-named read-outs stand apart in the source and are kept apart here.

Legend:
[1] = tested on: PTZ-induced kindling, mice; test: PTZ-induced kindling model; assay type: in vivo, mouse
Protocol: We investigated the impact of lead compound (R)-32 on PTZ-induced kindling in mice to further assess its antiseizure potential (Figure 3). […] The PTZ-induced kindling model is widely recognized as a useful method to induce chronic increase in susceptibility to epileptic seizures.
Figure 3 Effect of repeated treatment with (R)-32 in PTZ-induced kindling model in mice. […] Data are presented as means of seizure severity (n = 10–15 animals). Statistical significance was evaluated by a mixed effects model for repeated measures followed by Tukey’s post hoc test: **p < 0.01, […] vs control group (GraphPad Prism 8.4.3).
The procedure was performed as described in detail in our previous studies.[88],[89] […] Seizures were induced three times a week by i.p. administration of PTZ at a subconvulsive dose of 40 mg/kg. […] The seizure severity was scored using the modified Racine’s scale. […] The locomotor activity test, the elevated plus maze test, and the FST were performed 24 h after the last PTZ injection, according to the methods described in detail elsewhere. After completion of behavioral tests, animals were sacrificed. Hippocampi and cortices were dissected from the brains, frozen, and stored at −80 °C until assay. Following each PTZ injection, the mean seizure severity scores were determined for each experimental group. A mixed effects model for repeated measurements was used for analysis, along with Tukey’s post hoc test. The percentage of fully kindled mice was compared using Fisher’s exact probability test.

[2] = pharmacokinetic study in mice (serum and brain, non-compartmental analysis); assay type: in vivo, mouse; details: for Kp / MRT / Tmax / half-life / k el / CL/F / Vd/F: male, CD-1, mouse; for Kp: brain and serum, read-out: Brain-to-serum AUC ratio; for half-life: read-out: t1/2 λz; for k el: read-out: λz (converted); for Vd/F: read-out: Vz/F
Protocol: They were housed in conditions of constant temperature with the 12:12 h light–dark cycle and free access to food and water. […] Moreover, the compound was dissolved in a mixture of DMSO/PEG400/water (1:4:5, v/v/v) and administered p.o. at a dose of 25 mg/kg. […] After allowing the blood to coagulate for 20 min at room temperature, the serum was separated using a 5000g Eppendorf miniSpin centrifuge (Germany) for 10 min. Samples were kept at −80 °C until they were analyzed. The First Ethical Committee on Animal Experimentation in Kraków granted approval for all animal treatments (license no. 270/2019). Concentrations of compound (R)-32 in mouse serum and brain tissue were measured using a liquid chromatography tandem mass spectrometry method (LC-MS/MS). Mouse brains were homogenized in distilled water at the ratio of 1:4 (w/v) using the ULTRA-TURRAX T10 basic tissue homogenizer (IKA, Germany). […] Samples were shaken for 10 min (IKA Vibrax VXR, Germany) and then centrifuged for 5 min at the speed of 8000g (Eppendorf miniSpin centrifuge, Germany). Supernatants were transferred into the autosampler vials, and a sample volume of 1 μL was injected into the LC-MS/MS system. Liquid chromatography was performed on an Exion LC AC HPLC system (Sciex, USA) with a Hypersil Gold C18 analytical column (3 × 50 mm, 5 μm, Thermo Scientific, USA). […] The initial mobile phase composition was 95% B and 5% A for the first 2 min with a linear gradient to 5% B in the next 2 min and then isocratic mode for 2 min with the following rapid change back to 95% B in 0.1 min. The remaining time of elution was set at 95% B. The whole HPLC operation lasted 10 min, and the flow rate was set to 0.4 mL/min. A QTRAP 4500 mass spectrometer (Sciex, USA) equipped with an ESI source, was used for detection. The mass spectrometric parameters were optimized to obtain maximum sensitivity at unit resolution. The ion source temperature was maintained at 450 °C, and the ion spray voltage was set to 5500 V. The CUR was set to 40 psi and the collision gas (CAD) to medium. The MRM experiments were conducted in the positive ion mode by monitoring the precursor to product ion transitions from m/z 422 to 247 (CE = 25 eV) and from m/z 422 to 106 (CE = 57 eV) for compound (R)-32 and from m/z 436 to 207 (CE = 42 eV) for IS. The working solutions for (R)-32 were created in methanol, while the stock solution was made in DMSO at a concentration of 1 mg/mL. […] Two distinct calibration curves were created for serum samples, one for greater concentrations and one for lower amounts. The precipitating agent was also diluted 10 times with calibrators and samples from the highest concentration range. […] The limits used for quantification were 0.001 to 5, 0.1 to 20 μg/mL for serum, and 0.005 to 25 μg/g for brain tissue. Samples with (R)-32 concentrations higher than the quantitative upper limit were 10-fold diluted using the blank matrix, which is either serum or brain homogenate. The method’s precision and accuracy fell within the bounds established by the FDA’s standards for the verification of bioanalytical techniques. During the normal analysis of the samples, no substantial matrix effect was identified, and no stability issues were encountered. The Analyst program version 1.7 was utilized for both data collecting and analysis. Noncompartmental analysis was used to estimate pharmacokinetic parameters of (R)-32 in serum and brain tissue. The area under the mean concentration versus time curve extrapolated to infinity (AUC0-inf) was estimated using the linear trapezoidal rule by combining trapezoid calculation of AUC0–t and the area extrapolated to infinity. The MRT was calculated from AUMC0-inf/AUC0-inf, where AUMC0-inf was estimated by calculation of the total area under the first-moment curve. The terminal slope (λz) was calculated by log–linear regression of the drug concentration versus time data in the terminal phase and the terminal half-life (t0.5) was calculated as 0.693/λz. […]

Question: Which results are given for `CC(=O)N[C@@H](C(=O)N1CCN(c2cccc(OC(F)(F)F)c2)CC1)c1ccccc1` [(R)-32, (R)-N-(2-Oxo-1-phenyl-2-(4-(3-(trifluoromethoxy)phenyl)piperazin-1-yl)ethyl)acetamide]?
Answer: effect on kindling development ([1]; 20 mg/kg i.p. repeatedly every 24 h): did not significantly affect kindling development; effect on kindling development ([1]; 40 mg/kg i.p. repeatedly every 24 h): did not significantly affect kindling development; effect on kindling progression ([1]; 80 mg/kg i.p. repeatedly, p < 0.01 after 19th PTZ injection): slightly suppressed kindling progression; average seizure severity score after the first PTZ injection ([1]; 80 mg/kg, mean ± SD): 0.87 ± 0.35; average seizure severity score after the last PTZ injection ([1]; 80 mg/kg, mean ± SD): 2.65 ± 1.28; MRT after p.o. dosing in comparison to i.p. administration [2]: ~4 fold; ratios of Cmax and AUC in serum after p.o. dosing compared to i.p. administration of the same dose ([2]; 25 mg/kg): lower than 0.5; AUC0–∞ ([2]; brain, 25 mg/kg i.p.): 274,802.60 ng·min/mL(g); Cmax ([2]; brain, 25 mg/kg i.p.): 8266.67 ng/mL(g); AUC0–∞ ([2]; brain, 25 mg/kg p.o.): 156,252.29 ng·min/mL(g); Cmax ([2]; brain, 25 mg/kg p.o.): 1870.33 ng/mL(g); AUC0–∞ ([2]; brain, 50 mg/kg i.p.): 689,733.29 ng·min/mL(g); Cmax ([2]; brain, 50 mg/kg i.p.): 21,475.00 ng/mL(g); Kp ([2]; intraperitoneal, 50 mg/kg): 1.5; Kp ([2]; ip, 25 mg/kg i.p.): 1.2; Kp ([2]; po, 25 mg/kg p.o.): 1.3; MRT ([2]; ip, brain, 25 mg/kg i.p.): 45.5 min; Tmax ([2]; ip, brain, 25 mg/kg i.p.): 15 min; half-life ([2]; ip, brain, 25 mg/kg i.p.): 80.5 min; k el ([2]; ip, brain, 25 mg/kg i.p.): 0.00015 s⁻¹; MRT ([2]; ip, brain, 50 mg/kg i.p.): 47.3 min; Tmax ([2]; ip, brain, 50 mg/kg i.p.): 15 min; half-life ([2]; ip, brain, 50 mg/kg i.p.): 62.3 min; k el ([2]; ip, brain, 50 mg/kg i.p.): 0.000183 s⁻¹; CL/F ([2]; ip, serum, 25 mg/kg i.p.): 6.6 L/h/kg; MRT ([2]; ip, serum, 25 mg/kg i.p.): 42.3 min; Tmax ([2]; ip, serum, 25 mg/kg i.p.): 15 min; Vd/F ([2]; ip, serum, 25 mg/kg i.p.): 12.3 L/kg; half-life ([2]; ip, serum, 25 mg/kg i.p.): 77.5 min; k el ([2]; ip, serum, 25 mg/kg i.p.): 0.00015 s⁻¹; CL/F ([2]; ip, serum, 50 mg/kg i.p.): 6.48 L/h/kg; MRT ([2]; ip, serum, 50 mg/kg i.p.): 33.6 min; Tmax ([2]; ip, serum, 50 mg/kg i.p.): 15 min; Vd/F ([2]; ip, serum, 50 mg/kg i.p.): 9.97 L/kg; half-life ([2]; ip, serum, 50 mg/kg i.p.): 64.3 min; k el ([2]; ip, serum, 50 mg/kg i.p.): 0.000183 s⁻¹; MRT ([2]; po, brain, 25 mg/kg p.o.): 151 min; Tmax ([2]; po, brain, 25 mg/kg p.o.): 5 min; half-life ([2]; po, brain, 25 mg/kg p.o.): 133 min; k el ([2]; po, brain, 25 mg/kg p.o.): 8.33e-05 s⁻¹; CL/F ([2]; po, serum, 25 mg/kg p.o.): 12.6 L/h/kg; MRT ([2]; po, serum, 25 mg/kg p.o.): 156 min; Tmax ([2]; po, serum, 25 mg/kg p.o.): 5 min; Vd/F ([2]; po, serum, 25 mg/kg p.o.): 38.5 L/kg; half-life ([2]; po, serum, 25 mg/kg p.o.): 127 min; k el ([2]; po, serum, 25 mg/kg p.o.): 8.33e-05 s⁻¹; Tmax ([2]; serum, other: both i.p. and p.o., after both i.p. and p.o. dosing): ≤ 15 min; AUC0–∞ ([2]; serum, 25 mg/kg i.p.): 228,063.48 ng·min/mL(g); Cmax ([2]; serum, 25 mg/kg i.p.): 7613.33 ng/mL(g); AUC0–∞ ([2]; serum, 25 mg/kg p.o.): 118,998.11 ng·min/mL(g); Cmax ([2]; serum, 25 mg/kg p.o.): 1266.00 ng/mL(g); AUC0–∞ ([2]; serum, 50 mg/kg i.p.): 464,877.54 ng·min/mL(g); Cmax ([2]; serum, 50 mg/kg i.p.): 15,900.00 ng/mL(g)
